The test system of this assay is microtubule-associated protein Tau. The assay can be described thus: nano PET/CT imaging in P301L gene transgenic mice and control mice. The format is in vivo. Conditions: 0.46 mCi by tail vein, 30 minutes of distribution. The text has this:
FIG. 3 is an image of the microtubule-associated protein Tau compound 29 of the present invention in P301L gene transgenic mice and control mice using positron emission tomography (nano PET/CT) analysis, in which P301L gene transgenic mice (source: United States JACKSON Research Center) refers to the mutation of proline to leucine at codon 301 of the encoded microtubule-associated protein Tau. These types of mutations can accelerate the formation of neurofibrillary tangles. P301L gene transgenic mice and control mice were injected through the tail vein with 0.46 millicuries (mCi) of compound 29 of the present invention, and after 30 minutes of distribution, radiography was performed on the mice using a positron emission tomography scanner (BIOSCAN).
0.46 mCi of compound 29 was injected into P301L gene transgenic mice and control mice, and after 30 minutes of distribution nano-PET/CT was used for contrast imaging.

“Also recorded” adds a separate entry of the source.

`CC([18F])COc1ccc2cc(-n3cc4ccccc4c3)ncc2c1` (stereo not shown) [compound 29, [18F] 7-(2-fluoropropoxy)-3-(2H-isoindol-2-yl) isoquinoline]: the “drug accumulation (absorption) in the brain of P301L gene transgenic mice versus control mice” value is “significantly higher than that of the control mice; also recorded: significantly greater than that of control mice”.

The record behind these values is patent US20220227728A1, “Microtubule-associated protein Tau imaging compounds for Alzheimer's disease and precursors thereof” (priority 2021, published 2022).
